Experimental data as given in patent US20080292619A1, “Pharmaceutical Composition Containing Meltrin Antagonist” (MOCHIDA PHARMACEUTICAL CO., LTD., priority 2004, published 2008).
In the oligonucleotide strings, read from the 5' end, every base follows the letter of its sugar. An asterisk marks phosphorothioate; unmarked linkages are phosphodiester. Other units and linkages are bracketed, terminal groups are in braces. A string of capitals states the bases alone. d = 2'-deoxy (DNA)

Test system: human meltrin α RNA
Experiment: Suppression of human meltrin α expression by antisense compound in RD cell (real time PCR)
Type: cell-based
Settings: 50 nM; RD cell; corrected by GAPDH
Summary of the method: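 RD cells transfected with heat-denatured antisense oligodeoxynucleotide plus Lipofectin in Opti-MEM for 4 h at 37° C, then cultured 18 h. Meltrin α RNA quantified by TaqMan RT-PCR against plasmid standard curve, GAPDH-corrected; suppression vs untreated cells, rated +/++/+++ for ≥30/50/70%.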

Substance	suppression rate of expression, 50 nM
H145 + 10: ccgagttgttctggccagag (dC*dC*dG*dA*dG*dT*dT*dG*dT*dT*dC*dT*dG*dG*dC*dC*dA*dG*dA*dG; antisense)	++ (“++” when the suppression rate was at least 50%)
H004: ctggcacaagccagccttga (CTGGCACAAGCCAGCCTTGA; antisense; DNA, all phosphorothioate, methylation of C not given here)	+ (“+” when the suppression rate was at least 30%)
H150: ttggtgtggatattgtggag (dT*dT*dG*dG*dT*dG*dT*dG*dG*dA*dT*dA*dT*dT*dG*dT*dG*dG*dA*dG; antisense)	+ (“+” when the suppression rate was at least 30%)
H136 + 16: agggacattcaggccgttga (AGGGACATTCAGGCCGTTGA; antisense; DNA, all phosphorothioate, methylation of C not given here)	+ (“+” when the suppression rate was at least 30%)
H139 + 18: acgctaggtgcacgtggggc (ACGCTAGGTGCACGTGGGGC; antisense; DNA, all phosphorothioate, methylation of C not given here)	++ (“++” when the suppression rate was at least 50%)
H150 + 5: ggcacttggtgtggatattg (dG*dG*dC*dA*dC*dT*dT*dG*dG*dT*dG*dT*dG*dG*dA*dT*dA*dT*dT*dG; antisense)	+ (“+” when the suppression rate was at least 30%)
H146 + 10: ctggccaaggcatgagtgag (dC*dT*dG*dG*dC*dC*dA*dA*dG*dG*dC*dA*dT*dG*dA*dG*dT*dG*dA*dG; antisense)	+ (“+” when the suppression rate was at least 30%)
H132 + 17: gggtaggaatctggcggctt (GGGTAGGAATCTGGCGGCTT; antisense; DNA, all phosphorothioate, methylation of C not given here)	++ (“++” when the suppression rate was at least 50%)
H140: ggacgctaggtgcacgtggg (GGACGCTAGGTGCACGTGGG; antisense; DNA, all phosphorothioate, methylation of C not given here)	+ (“+” when the suppression rate was at least 30%)
H143 + 12: tctgaggggggtttggctta (TCTGAGGGGGGTTTGGCTTA; antisense; DNA, all phosphorothioate, methylation of C not given here)	+ (“+” when the suppression rate was at least 30%)
H139 + 11: gtgcacgtggggcccggtgg (GTGCACGTGGGGCCCGGTGG; antisense; DNA, all phosphorothioate, methylation of C not given here)	+ (“+” when the suppression rate was at least 30%)
H143: ttggcttacaggtcccctgg (TTGGCTTACAGGTCCCCTGG; antisense; DNA, all phosphorothioate, methylation of C not given here)	+ (“+” when the suppression rate was at least 30%)
H132 + 15: gtaggaatctggcggcttcc (GTAGGAATCTGGCGGCTTCC; antisense; DNA, all phosphorothioate, methylation of C not given here)	+ (“+” when the suppression rate was at least 30%)
H139 + 15: ctaggtgcacgtggggcccg (CTAGGTGCACGTGGGGCCCG; antisense; DNA, all phosphorothioate, methylation of C not given here)	+++ (“+++” when the suppression rate was at least 70%)
H013: ctgcaccatcccacgcgggc (CTGCACCATCCCACGCGGGC; antisense; DNA, all phosphorothioate, methylation of C not given here)	+ (“+” when the suppression rate was at least 30%)

Same assay, conditions: 200 nM; RD cell; corrected by GAPDH

Substance	suppression rate of expression, 200 nM
H027: ttctttgctttcccgttgta (TTCTTTGCTTTCCCGTTGTA; antisense; DNA, all phosphorothioate, methylation of C not given here)	+ (“+” when the suppression rate was at least 30%)
H178: ctccctgaaagccaaacaca (dC*dT*dC*dC*dC*dT*dG*dA*dA*dA*dG*dC*dC*dA*dA*dA*dC*dA*dC*dA; antisense)	+ (“+” when the suppression rate was at least 30%)
H029: tggcaatgagaccttcattt (TGGCAATGAGACCTTCATTT; antisense; DNA, all phosphorothioate, methylation of C not given here)	+ (“+” when the suppression rate was at least 30%)
H080: caaatctgttcccacacttc (dC*dA*dA*dA*dT*dC*dT*dG*dT*dT*dC*dC*dC*dA*dC*dA*dC*dT*dT*dC; antisense)	+ (“+” when the suppression rate was at least 30%)
H046: tgccttcttgcccatgtctg (TGCCTTCTTGCCCATGTCTG; antisense; DNA, all phosphorothioate, methylation of C not given here)	++ (“++” when the suppression rate was at least 50%)
H221: gaaacatggctccctagtca (dG*dA*dA*dA*dC*dA*dT*dG*dG*dC*dT*dC*dC*dC*dT*dA*dG*dT*dC*dA; antisense)	+ (“+” when the suppression rate was at least 30%)
H004: ctggcacaagccagccttga (CTGGCACAAGCCAGCCTTGA; antisense; DNA, all phosphorothioate, methylation of C not given here)	+++ (“+++” when the suppression rate was at least 70%)
H150: ttggtgtggatattgtggag (dT*dT*dG*dG*dT*dG*dT*dG*dG*dA*dT*dA*dT*dT*dG*dT*dG*dG*dA*dG; antisense)	+++ (“+++” when the suppression rate was at least 70%)
H251: aggaagggctaacatgccag (DNA dA*dG*dG*dA*dA*dG*dG*dG*dC*dT*dA*dA*dC*dA*dT*dG*dC*dC*dA*dG; antisense)	+++ (“+++” when the suppression rate was at least 70%)
H114: gtgaaccccaaagacactaa (dG*dT*dG*dA*dA*dC*dC*dC*dC*dA*dA*dA*dG*dA*dC*dA*dC*dT*dA*dA; antisense)	+ (“+” when the suppression rate was at least 30%)
H003: ccgttgcaataaatgagcaa (CCGTTGCAATAAATGAGCAA; antisense; DNA, all phosphorothioate, methylation of C not given here)	+ (“+” when the suppression rate was at least 30%)
H249: aaaaagacaatgcccacgta (DNA dA*dA*dA*dA*dA*dG*dA*dC*dA*dA*dT*dG*dC*dC*dC*dA*dC*dG*dT*dA; antisense)	++ (“++” when the suppression rate was at least 50%)
H082: tcctctggctccccacagtc (dT*dC*dC*dT*dC*dT*dG*dG*dC*dT*dC*dC*dC*dC*dA*dC*dA*dG*dT*dC; antisense)	+ (“+” when the suppression rate was at least 30%)
H217: ggaagttgataagcaagttg (dG*dG*dA*dA*dG*dT*dT*dG*dA*dT*dA*dA*dG*dC*dA*dA*dG*dT*dT*dG; antisense)	+++ (“+++” when the suppression rate was at least 70%)
H071: ccatttgacagctacagccc (dC*dC*dA*dT*dT*dT*dG*dA*dC*dA*dG*dC*dT*dA*dC*dA*dG*dC*dC*dC; antisense)	+ (“+” when the suppression rate was at least 30%)
H091: ttggctgggcagtgagggct (dT*dT*dG*dG*dC*dT*dG*dG*dG*dC*dA*dG*dT*dG*dA*dG*dG*dG*dC*dT; antisense)	++ (“++” when the suppression rate was at least 50%)
H140: ggacgctaggtgcacgtggg (GGACGCTAGGTGCACGTGGG; antisense; DNA, all phosphorothioate, methylation of C not given here)	+++ (“+++” when the suppression rate was at least 70%)
H044: tctttgcagcgaggtttggt (TCTTTGCAGCGAGGTTTGGT; antisense; DNA, all phosphorothioate, methylation of C not given here)	++ (“++” when the suppression rate was at least 50%)
H035: ctgaatcagaatatccccgt (CTGAATCAGAATATCCCCGT; antisense; DNA, all phosphorothioate, methylation of C not given here)	++ (“++” when the suppression rate was at least 50%)
H160: gcaccatagcacagcacagc (dG*dC*dA*dC*dC*dA*dT*dA*dG*dC*dA*dC*dA*dG*dC*dA*dC*dA*dG*dC; antisense)	++ (“++” when the suppression rate was at least 50%)
H126: cagcagtcgtatcaaggtct (CAGCAGTCGTATCAAGGTCT; antisense; DNA, all phosphorothioate, methylation of C not given here)	+ (“+” when the suppression rate was at least 30%)
H235: ttgcctagatacagtgggga (DNA dT*dT*dG*dC*dC*dT*dA*dG*dA*dT*dA*dC*dA*dG*dT*dG*dG*dG*dG*dA; antisense)	++ (“++” when the suppression rate was at least 50%)
H031: tcagtaccgtcttgcagata (TCAGTACCGTCTTGCAGATA; antisense; DNA, all phosphorothioate, methylation of C not given here)	+ (“+” when the suppression rate was at least 30%)
H143: ttggcttacaggtcccctgg (TTGGCTTACAGGTCCCCTGG; antisense; DNA, all phosphorothioate, methylation of C not given here)	+++ (“+++” when the suppression rate was at least 70%)
H094: atgccattgtagcagtagcc (dA*dT*dG*dC*dC*dA*dT*dT*dG*dT*dA*dG*dC*dA*dG*dT*dA*dG*dC*dC; antisense)	+ (“+” when the suppression rate was at least 30%)
H013: ctgcaccatcccacgcgggc (CTGCACCATCCCACGCGGGC; antisense; DNA, all phosphorothioate, methylation of C not given here)	++ (“++” when the suppression rate was at least 50%)

Same assay, conditions: 200 nM; chimeric 2′-methoxy antisense oligonucleotides; RD cell

Substance	suppression rate of expression, 200 nM
H075-OMe1: chimeric antisense oligonucleotide TGCTGcaactgctgaACACC, uppercase 2′-methoxy nucleotides, lowercase phosphorothioate nucleotides (TGCTGCAACTGCTGAACACC; 2'-O-methyl at 1, 2, 3, 4, 5, 16, 17, 18, 19, 20, other sugars, backbone and T or U not given here; lowercase gap nucleotides phosphorothioate)	+ (“+” when the suppression rate was at least 30%)
